The nature of experiment [1]: P. falciparum late gametocyte killing, dose response, luminescence (AID 1117278).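 Note: gametocytes exposed to compound for 24 hours.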 It counts as functional, cell-based.
Experiment [2] can be described thus: Jurkat T cell cytotoxicity, dose response, cytotoxicity control for P. falciparum gametocyte viability project, luminescence (AID 1117277).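 Note: potency reflects loss of cellular ATP meaning fewer viable cells.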 The class given is functional, cell-based.
Experiment [3] has as its target T1, Oxysterols receptor LXR-beta (Homo sapiens, UniProt P55055).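 Note: agonist activity at LXR measured by a cell-based luminescence readout across a dose range, run as a counterscreen for daf-12 agonists; HEK293 cells with Gal4-LXR fusion and GAL4-driven luciferase reporter; potency for activation of Gal4-LXR reporter so compounds are agonists.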
T1 sequence (P55055 whole entry): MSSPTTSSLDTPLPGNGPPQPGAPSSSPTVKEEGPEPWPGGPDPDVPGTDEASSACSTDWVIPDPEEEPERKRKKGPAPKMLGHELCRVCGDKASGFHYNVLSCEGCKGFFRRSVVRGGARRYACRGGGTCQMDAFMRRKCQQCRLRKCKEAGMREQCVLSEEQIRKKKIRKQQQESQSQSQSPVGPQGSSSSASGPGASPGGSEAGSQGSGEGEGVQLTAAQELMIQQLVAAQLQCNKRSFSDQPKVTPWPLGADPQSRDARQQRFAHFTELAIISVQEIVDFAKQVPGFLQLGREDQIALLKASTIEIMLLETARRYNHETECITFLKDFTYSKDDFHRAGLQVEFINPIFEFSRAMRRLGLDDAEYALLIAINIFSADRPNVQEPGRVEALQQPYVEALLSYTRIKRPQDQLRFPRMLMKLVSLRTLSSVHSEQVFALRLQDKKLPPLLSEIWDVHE
The class given is functional, cell-based.

For experiment [4], the target named is T2, Tyrosine-protein phosphatase non-receptor type 7 (Homo sapiens, UniProt P35236).
T2 sequence (P35236 whole entry): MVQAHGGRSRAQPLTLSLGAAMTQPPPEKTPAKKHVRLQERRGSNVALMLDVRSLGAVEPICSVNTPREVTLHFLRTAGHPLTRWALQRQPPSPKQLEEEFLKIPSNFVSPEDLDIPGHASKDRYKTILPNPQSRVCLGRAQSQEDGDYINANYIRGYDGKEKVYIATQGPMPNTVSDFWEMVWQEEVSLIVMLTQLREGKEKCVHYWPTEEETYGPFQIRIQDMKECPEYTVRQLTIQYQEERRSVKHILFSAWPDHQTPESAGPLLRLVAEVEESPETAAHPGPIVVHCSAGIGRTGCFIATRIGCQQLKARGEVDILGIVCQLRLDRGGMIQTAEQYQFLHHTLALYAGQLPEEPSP
Kind of experiment: inhibitors of human HePTP phosphatase, […], biochemical, absorbance, leukemia target (AID 521). The class given is functional.

A short description of experiment [5]: P. falciparum Dd2 growth inhibitors, dose response, SYBR Green, cherry-picked samples (AID 1159567). The class given is functional, cell-based.
The nature of experiment [6]: HepG2 cell cytotoxicity, dose response, cytotoxicity control, cherry-picked samples (AID 1159577). The class given is functional, cell-based.
Experiment [7] can be described thus: cells. It counts as functional, cell-based.
The target of experiment [8] is T3, Trace amine-associated receptor 1 (Homo sapiens, UniProt Q96RJ0).
T3 sequence (Q96RJ0 whole entry): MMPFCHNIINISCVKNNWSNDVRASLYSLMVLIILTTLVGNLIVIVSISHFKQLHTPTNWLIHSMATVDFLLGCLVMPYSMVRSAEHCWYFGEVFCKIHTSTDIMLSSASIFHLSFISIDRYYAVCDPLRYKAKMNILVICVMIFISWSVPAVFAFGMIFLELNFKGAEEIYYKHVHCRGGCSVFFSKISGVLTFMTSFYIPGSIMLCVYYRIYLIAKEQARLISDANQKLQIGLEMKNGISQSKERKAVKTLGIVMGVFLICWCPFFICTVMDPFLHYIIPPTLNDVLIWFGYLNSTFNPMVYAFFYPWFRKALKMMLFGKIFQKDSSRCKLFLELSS
Briefly: Fluorescence-based cell-based high throughput dose response assay to identify agonists of the human trace amine associated receptor 1 (TAAR1). It counts as functional.

In experiment [9] the target is T3, Trace amine-associated receptor 1. Briefly: Counterscreen for agonists of the human trace amine associated receptor 1 (hTAAR1): Fluorescence-based cell-based high throughput dose response assay to identify hTAAR1 agonist that also desensitize TAAR1 receptor response. The class given is functional. (In general: Counterscreens check selectivity or assay interference.)

The nature of experiment [10]: cells. The class given is functional, cell-based. This is another data set of the same source.
A short description of experiment [11]: A549 cell cytotoxicity, dose response, cytotoxicity control, plate reader, cherry-pick, antagonist series (AID 743412). It counts as functional, cell-based.
Experiment [12] can be described thus: HepG2 cell cytotoxicity, dose response, cytotoxicity control, plate reader, cherry-pick, antagonist series (AID 743416). The class given is functional, cell-based.
A short description of experiment [13]: LGR2 antagonists, dose response, cell-based, HEK293, CRE-luciferase reporter, cherry pick, set 2 (AID 743343).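 Note: transfected cells were stimulated with diluted bursicon conditioned medium after compound addition.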 The class given is functional.
Experiment [14] can be described thus: MC4R antagonists, dose response, counter-screen for LGR2 antagonist project, cell-based, plate reader, cherry pick (AID 743444).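 Note: transfected HEK 293 cells stimulated with alpha-MSH peptide; potency of inhibitors of the alpha-MSH evoked signal.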 The class given is functional.
Experiment [15] is described as follows: HEK293 cell cytotoxicity, dose response, cytotoxicity control, plate reader, cherry-picked samples (AID 743446). It counts as functional, cell-based.
Experiment [16] can be described thus: inhibitors of firefly luciferase expression or activity, dose response, H4 neuroglioma cells, luminescence (AID 1990). The class given is functional, cell-based.
Experiment [17] can be described thus: Luminescence Cell-Based Dose Response HTS to Identify Inhibitors of 5'UTR Stem-Loop Driven Prion Protein mRNA Translation in H4 Neuroglioblastoma Cells. [Related pubchem assays: 1827 (Project Summary), 1813 (Primary HTS)]. The class given is functional.
Experiment [18] is described as follows: inhibitors of SNCA 5'UTR-driven reporter translation, confirmation, H4 neuroglioma cells, luminescence (AID 1988). It counts as functional, cell-based.
Experiment [19] deals with T4, Heat shock factor protein 1 (Mus musculus, UniProt P38532).
T4 sequence (P38532 whole entry): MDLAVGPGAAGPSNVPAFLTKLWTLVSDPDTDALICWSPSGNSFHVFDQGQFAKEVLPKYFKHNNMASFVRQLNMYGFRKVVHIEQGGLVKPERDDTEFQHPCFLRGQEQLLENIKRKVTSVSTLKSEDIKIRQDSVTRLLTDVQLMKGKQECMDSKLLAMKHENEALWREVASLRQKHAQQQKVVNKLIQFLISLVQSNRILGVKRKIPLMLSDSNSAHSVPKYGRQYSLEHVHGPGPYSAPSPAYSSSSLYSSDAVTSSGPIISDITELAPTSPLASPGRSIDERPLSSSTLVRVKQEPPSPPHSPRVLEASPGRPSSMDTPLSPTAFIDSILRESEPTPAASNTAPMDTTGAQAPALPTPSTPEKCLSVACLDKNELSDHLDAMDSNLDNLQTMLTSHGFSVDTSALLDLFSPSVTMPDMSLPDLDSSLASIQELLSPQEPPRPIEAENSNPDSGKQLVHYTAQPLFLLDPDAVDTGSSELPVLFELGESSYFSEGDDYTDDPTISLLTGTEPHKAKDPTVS
Kind of experiment: inhibition of MG132-induced HSE-luciferase signal, confirmation, cell-based, NIH3T3, luminescence, dose retest (AID 2382).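 Note: NIH3T3 fibroblasts with HSF1-driven luciferase reporter stressed by proteasome inhibitor MG132; luminescence from HSF1-driven luciferase expression after 8 hours of MG132 stress.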 The class given is functional.

Experiment [20] has as its target T5, DNA repair protein RAD52 homolog (Homo sapiens, UniProt P43351).
T5 sequence (P43351 whole entry): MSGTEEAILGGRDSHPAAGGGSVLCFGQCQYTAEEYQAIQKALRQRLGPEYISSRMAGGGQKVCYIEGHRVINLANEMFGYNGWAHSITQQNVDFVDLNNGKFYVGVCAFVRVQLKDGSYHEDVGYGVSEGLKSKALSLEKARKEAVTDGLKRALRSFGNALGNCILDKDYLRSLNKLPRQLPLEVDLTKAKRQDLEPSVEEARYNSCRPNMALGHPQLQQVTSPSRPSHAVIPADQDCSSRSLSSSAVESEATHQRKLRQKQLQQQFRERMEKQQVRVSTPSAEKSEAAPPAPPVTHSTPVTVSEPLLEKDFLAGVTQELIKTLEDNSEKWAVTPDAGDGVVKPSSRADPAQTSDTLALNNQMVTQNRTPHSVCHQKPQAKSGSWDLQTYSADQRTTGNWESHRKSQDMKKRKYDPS
It counts as functional, biochemical.

The target of the next experiment is Albumin (Bos taurus, UniProt P02769). Kind of experiment: Counterscreen for inhibitors of T-cell receptor (TCR)-CD3 interaction: Fluorescence-based biochemical high throughput dose response assay to identify inhibitors of T-cell receptor (TCR)-CD3 interaction using a TAMRA-labeled BSA probe. The class given is functional.
Chain of Albumin (P02769 whole entry): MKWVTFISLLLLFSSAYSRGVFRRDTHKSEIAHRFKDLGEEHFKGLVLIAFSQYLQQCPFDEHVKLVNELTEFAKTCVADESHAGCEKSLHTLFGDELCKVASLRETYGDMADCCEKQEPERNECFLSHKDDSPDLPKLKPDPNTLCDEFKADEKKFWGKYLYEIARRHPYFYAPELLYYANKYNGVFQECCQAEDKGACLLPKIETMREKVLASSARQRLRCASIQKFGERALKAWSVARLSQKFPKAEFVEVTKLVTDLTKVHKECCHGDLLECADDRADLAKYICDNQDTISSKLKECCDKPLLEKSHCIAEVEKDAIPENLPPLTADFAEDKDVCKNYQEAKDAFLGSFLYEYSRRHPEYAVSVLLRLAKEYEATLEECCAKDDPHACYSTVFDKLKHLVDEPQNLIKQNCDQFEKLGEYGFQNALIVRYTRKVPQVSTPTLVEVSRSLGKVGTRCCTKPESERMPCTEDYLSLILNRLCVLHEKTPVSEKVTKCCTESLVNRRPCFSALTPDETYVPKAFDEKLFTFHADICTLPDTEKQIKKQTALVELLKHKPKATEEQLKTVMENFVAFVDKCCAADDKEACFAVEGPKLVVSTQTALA
Experiment [21] deals with T6, Endoribonuclease toxin MazF (Escherichia coli K-12, UniProt P0AE70).
T6 sequence (P0AE70 whole entry): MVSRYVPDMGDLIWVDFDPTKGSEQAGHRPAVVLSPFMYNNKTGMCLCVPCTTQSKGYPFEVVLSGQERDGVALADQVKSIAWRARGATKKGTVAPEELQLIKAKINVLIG
Briefly: MazF toxin RNase activators, dose response, biochemical, fluorescence, single-stranded RNA substrate, uHTS hits (AID 588481). It counts as functional.

The target in experiment [22] is T6, Endoribonuclease toxin MazF. Kind of experiment: fluorescent RNA oligo signal without MazF, dose response, counter-screen for MazEF activator project, biochemical, fluorescence, single-stranded RNase substrate (AID 588502). It counts as functional.
Experiment [23] can be described thus: HepG2 cell cytotoxicity, dose response, cytotoxicity control for Shn3 inhibitor project, CellTiter-Glo, cherry-picked (AID 624134). The class given is functional, cell-based. A general note: ATP-based viability assays read luminescence as a measure of living cells.

The structures appear in SMILES notation. Counter-ions that a name gives are not always drawn. Activity calls are given as the source filed them.

Broadly, the IC50 is the point on the concentration scale where inhibition reaches its midpoint. Take `COc1ccc(-c2nc(N)n(C(=O)c3ccccc3)n2)cc1`: the IC50 in experiment [1] was > 109 µM (inactive); in experiment [2] it was > 83.3 µM (inactive).

What is called EC50 is the midpoint of the concentration-response curve. On to `COCC1CCN(Cc2nc(-c3cccs3)no2)C1` (stereo not given), for which the EC50 in [3] was > 67.5 µM (inactive).

`COc1ccc(Cc2nnc(NC(=O)c3ccco3)s2)cc1OC`: the IC50 in experiment [4] was > 100 µM (not active).

The AC50 is the midpoint of the concentration-response curve, whichever way the signal moves. As for `CO[C@H]1CN(C)C(=O)c2cc(NC(=O)c3ccc(-c4ccccc4)cc3)ccc2OC[C@H](C)NC[C@H]1C`, the AC50 in [5] is 5.36 µM (active); in experiment [6], 10.1 µM (active).

Regarding `C(=C\n1nnc2ccccc21)/c1ccccn1`, in experiment [3], the EC50 was > 67.5 µM (inactive).

As to `COc1ccccc1CCn1cnc(-c2ccc(Cl)cc2)c1CC(C)C`, the IC50 is 14.2 µM (inactive) in “cells [7]” and 6.55 µM (active) in experiment [9]. The EC50 is 2.37 µM (active) in experiment [8] and > 30 µM (inactive) in the experiment “cells [10]”. Also, the AC50 was 23.2 µM (active) in experiment [11]; 31.2 µM (active) in experiment [12]; 19 µM (active) in [13]; 17.7 µM (active) in [14]; > 52 µM (inactive) in experiment [15].

Turning to `CCn1c2ccccc2c2nnc(SCC(=O)N3CC(C)OC(C)C3)nc21` (stereo not given), the half-inhibitory concentration (IC50) in experiment [4] is recorded as > 100 µM (not active).

In the case of `COc1ccc2cc3cc(C(=O)NC4CC4)sc3nc2c1`, the EC50 in experiment [16] was 6.66 µM (inconclusive); in experiment [17], 7.47 µM (active); in experiment [18] it was 5.41 µM (active). In addition, the AC50 in experiment [11] is 29.1 µM (active); in experiment [12], > 52 µM (inactive); in experiment [13], 3.86 µM (active); in experiment [14], 4.27 µM (active); in experiment [15], > 52 µM (inactive).

For the compound `N=C(N)SCc1ccccc1Cl`, the figures for the EC50 (in experiment [19]; in experiment [8]; in the experiment “cells [10]”) were 121 µM (active), 1.42 µM (active) and > 29.9 µM (inactive), respectively. Further, the values for the IC50 (in the experiment “cells [7]”; in experiment [9]) were > 29.9 µM (inactive) and 5.21 µM (active), respectively.

As to `CN(C)CCN(C(=O)c1ccc2ccccc2c1)c1nc2cc3c(cc2s1)OCO3`, the AC50 in experiment [20] is 28.3 µM (active).

Consider `Cc1cc(C)cc(OCc2nc(-c3cccnc3)no2)c1`, for which the results for the IC50 in experiment [1] and in experiment [2] were > 109 µM (inactive) and > 83.3 µM (inactive), respectively.

Turning to `Cc1cccc(C(=O)NCC(=O)NNC(=O)c2ccccc2O)c1`, the IC50 at Albumin was > 94 µM (inactive).

Turning to `Cc1ccccc1Cn1c2ccccc2c2cnn(CC(=O)NCCCN3CCN(C)CC3)c(=O)c21`, in experiment [20], the AC50 was 9.43 µM (active).

Turning to `CCOC(=O)CSc1nc2cc3c(cc2cc1C)OCO3`, the IC50 was > 109 µM (inactive) in experiment [1] and > 83.3 µM (inactive) in [2].

`Cc1ccc(OCc2ccc(Br)cc2)c([N+](=O)[O-])n1`: the EC50 in [3] is > 67.5 µM (inactive).

Regarding `Fc1ccc(Nc2nc(-c3ccncc3)cs2)cc1`, the IC50 in [1] is > 109 µM (inactive); in experiment [2], > 83.2 µM (inactive).

In the case of `c1ccc2c(CC3=NCCN3)cccc2c1` [NAPHAZOLINE HYDROCHLORIDE], the IC50 in “cells [7]” is > 29.9 µM (inactive); in [9], 1.15 µM (active). Further, the EC50 was 0.14 µM (active) in experiment [8] and > 29.9 µM (inactive) in “cells [10]”.

`O=C1/C(=C/Nc2ccccc2O)c2ccccc2C(=O)N1c1nccs1`: the EC50 in [21] and in [22] was > 99 µM (inactive) throughout. In experiment [23], the AC50 was > 70 µM (inactive). In addition, the IC50 at Albumin is > 94.1 µM (inactive).

Take `COc1cccc(S(=O)(=O)Nc2ccc3c(c2)[C@@H]2C[C@H](CC(=O)NCc4ccc(Cl)cc4)O[C@@H](CO)[C@@H]2O3)c1`: the AC50 in experiment [5] is 5.66 µM (active); in [6] it was > 39 µM (inactive).

The values are drawn from ChEMBL document CHEMBL1201862, “PubChem BioAssay data set” (2004).
